Reference: patent US11896673B2, “Glucose responsive insulin delivery compositions and methods” (NORTH CAROLINA STATE UNIVERSITY, priority 2016, dated 2024)

How the values were obtained:
healthy mice = assay: Hypoglycemia study in healthy mice under normoglycemic conditions; settings: mouse, in vivo
Protocol: FIG. 8F is a bar graph showing the quantification of the hypoglycemia index, calculated from the difference between the initial and nadir BG readings divided by the time at which nadir was reached. The error bars are based on the SD of five mice per group. (P values: *P<0.05) Next, the potential for insulin−mRBCs to induce hypoglycemia was studied in healthy mice under normoglycemic conditions (FIG. 8E). […] The corresponding hypoglycemia index was calculated to assess the risk of hypoglycemia (Yu J, et al. Proc. Natl. Acad. Sci. U.S.A. 112, 8260-8265 (2015); Chou DH-C, et al. Proc. Natl. Acad. Sci. U.S.A. 112, 2401-2406 (2015)).

[1] = tested on: STZ-induced type 1 diabetic mice; assay: In vivo bioactivity comparison of native insulin and Glu-Insulin; settings: same insulin concentration 5 mg/kg
Excerpt: Glucose was conjugated to insulin via a bifunctional maleimide linker (FIG. 2). Glu-Insulin was clearly identified by the sodium dodecyl sulfate polyacrylamide gel electrophoresis (SDS-PAGE) and matrix-assisted laser desorption/ionization mass spectrometry (MALDI MS) (FIG. 3A-B). As calculated by MALDI-MS, two glucose molecules are conjugated to each insulin molecule (feed molar ratio of glucose to insulin: 100:1). […] In short, the modification of insulin with glucose has a statistically insignificant impact on bioactivity relative to unmodified insulin.

GLUT1 = target: T1, GLUT1 (Rattus norvegicus, UniProt P11167); assay: Binding of free GLUT1 protein and Glu-Insulin in vitro (centrifugal filter); settings: overnight incubation, MWCO=10 kDa filter
T1 construct: His6 (pET-28a vector-encoded) (N); T7 tag (pET-28a vector-encoded, upstream of BamHI site) (N); made in house; host or cells: E. coli Rosetta (DE3) pLysS
T1 sequence (P11167 1-492): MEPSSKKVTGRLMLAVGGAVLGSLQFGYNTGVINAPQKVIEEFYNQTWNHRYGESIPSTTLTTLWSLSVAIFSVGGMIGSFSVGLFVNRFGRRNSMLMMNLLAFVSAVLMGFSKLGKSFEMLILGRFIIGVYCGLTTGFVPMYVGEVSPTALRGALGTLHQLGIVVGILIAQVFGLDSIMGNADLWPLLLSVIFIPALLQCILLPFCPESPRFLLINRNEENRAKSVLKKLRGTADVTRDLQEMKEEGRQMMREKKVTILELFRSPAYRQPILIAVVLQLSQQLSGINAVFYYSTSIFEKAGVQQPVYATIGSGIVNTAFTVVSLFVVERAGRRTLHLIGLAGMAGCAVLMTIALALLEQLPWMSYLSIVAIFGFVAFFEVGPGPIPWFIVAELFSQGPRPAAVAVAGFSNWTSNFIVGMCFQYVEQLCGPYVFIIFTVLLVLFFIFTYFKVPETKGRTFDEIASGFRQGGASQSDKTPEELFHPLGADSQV
Protocol: Glucose modified insulin was mixed with GLUT1 protein at a molar ratio of 1.2:1 for 12 hours at 4° C. Free Glu-insulin were removed by the centrifugal filter device (MWCO=10 kDa). The obtained Glu-Insulin was stored at 4° C. until use. We first examined the specific binding affinity of free GLUT1 proteins and Glu-Insulin in vitro. We incubated the GLUT1 with Glu-Insulin overnight, free Glu-Insulin was removed by centrifugal filter device (MWCO=10 kDa).

[2] = tested on: STZ-induced diabetic mice; assay: Intraperitoneal glucose tolerance test (IPGTT) 1.5 h after administration; type: in vivo; settings: IPGTT 1.5 hours after i.v. administration
Protocol: In Vivo Studies Using STZ-Induced Diabetic Mice. STZ-induced male C57B6 diabetic mice were purchased from Jackson Labs (USA) and used under protocols approved by the Institutional Animal Care and Use Committee at North Carolina State University. For in vivo circulating behavior of insulin-RBC, mRBCs were coupled with FITC after loading with insulin, 3 mice were injected i.v. with autologous insulin−mRBCs. Then ˜3 μL of blood was extracted from the tail vein at different time points and then dispersed in 0.5 mL of PBS with anticoagulants. Flow cytometry measurement was applied to determine the percentages of insulin−mRBCs (positive in FITC) in the blood samples. […] The BG level was measured from tail vein blood samples (approximately 3 μL) of mice using the Clarity GL2Plus glucose meter (Clarity Diagnostics) at different time points. […] Plasma insulin concentrations were determined using the human insulin ELISA kit (Calbiotech, USA). […] To quantitate the glucose response to the various insulin formulations (Yu J, et al. Proc. Natl. Acad. Sci. U.S.A. 112, 8260-8265 (2015); Chou DH-C, et al. Proc. Natl. Acad. Sci. U.S.A. 112, 2401-2406 (2015)), the area under the curve was calculated for each group between 90 and 200 min. […] Furthermore, plasma insulin levels of diabetic mice were monitored over time by ELISA after IPGTT (FIG. 8D).

[3] = tested on: STZ-induced diabetic mice; assay: Blood glucose levels in STZ-induced diabetic mice after treatment; type: in vivo; settings: i.v., 5 mg/kg insulin
Protocol: In Vivo Studies Using STZ-Induced Diabetic Mice. STZ-induced male C57B6 diabetic mice were purchased from Jackson Labs (USA) and used under protocols approved by the Institutional Animal Care and Use Committee at North Carolina State University. For in vivo circulating behavior of insulin-RBC, mRBCs were coupled with FITC after loading with insulin, 3 mice were injected i.v. with autologous insulin−mRBCs. Then ˜3 μL of blood was extracted from the tail vein at different time points and then dispersed in 0.5 mL of PBS with anticoagulants. Flow cytometry measurement was applied to determine the percentages of insulin−mRBCs (positive in FITC) in the blood samples. […] The BG level was measured from tail vein blood samples (approximately 3 μL) of mice using the Clarity GL2Plus glucose meter (Clarity Diagnostics) at different time points. […] Plasma insulin concentrations were determined using the human insulin ELISA kit (Calbiotech, USA). The efficacy of insulin−mRBCs for treatment of hyperglycemia in STZ-induced type 1 diabetic mice (Like, A A, et al. Science 193, 415-417 (1976)) was also assessed. […] The BG levels of treated mice were then monitored over time.

mRBCs [4] = assay: Binding/loading of Glu-Insulin to mouse RBCs (confocal, flow cytometry, ELISA); settings: incubated overnight, confocal fluorescence microscopy
Protocol: Preparation of insulin loaded RBCs. Whole blood was collected from the B16 mice or from a human volunteer (The study protocol was approved by the Institutional Review Board at North Carolina State University). RBCs were separated from the whole blood by centrifugation (1000 g, 10 min) and washed thrice with cold PBS (300 mOsm, pH=8.0) to remove the glucose intracellularly. To load the insulin to RBC membrane, Glu-Insulin (0.5 mg/ml) was incubated with […] RBCs (1×10^8) under gentle stirring at 4° C. overnight. RBCs were washed thrice with cold PBS (300 mOsm, pH 8) to remove the unconjugated Glu-Insulin. Bound insulin was determined by ELISA assay.

mRBCs [5] = tested on: mRBCs
Protocol: The mRBCs were incubated with Glu-Insulin overnight and imaged using the confocal fluorescence microscope to determine whether Glu-Insulin can bind to mRBCs via the specific glucose-GLUT binding.

With “Glu-Insulin: human recombinant insulin conjugated to two glucose (glucosamine) molecules via a bifunctional maleimide (Sulfo-SMCC/thiol) linker” the “BG levels in healthy mice” value (healthy mice) was “significantly decreased BG levels compared to insulin−mRBCs treated mice”, the “bioactivity profile relative to native insulin” value [1] was “do not display any significant difference in their bioactivity profiles” and the “binding of Glu-Insulin to free GLUT1 protein” value (GLUT1) was “insulin signals could be detected in supernatant if co-incubated with GLUT1 proteins”. The “BG response after IPGTT” value [2] was “only exhibited a fleeting response”, the “BG level recovered within 24 h” value [3] was ~500 mg/dL and the “BG level within 1 h” value [3] was < 70 mg/dL. The “binding of Glu-Insulin to mRBCs” value (mRBCs [4]) was “bound to the mRBCs” and the “damage to mRBCs by insulin binding (annexin V)” value (mRBCs [5]) was “does not cause significant damage to mRBCs”.
